pIC50: −log10 of the molar value.
Biological target: Nitric oxide synthase, brain (Sus scrofa)
Assay: Inhibitory activity against Nitric oxide synthase (derived from porcine brain cerebellum)

pIC50: 3.74
SMILES: Nc1nc(N)c2nc(COc3ccccc3)cnc2n1 [6-Phenoxymethyl-pteridine-2,4-diamine]
